Measured values reported in patent US6537545B1, “Use of corneal hardening agents in enzymeorthokeratology” (ISTA Pharmaceuticals, Inc., priority 1998, dated 2003).

Assays:
[1] = test system: Dutch Belted rabbit eyes; experiment: Slit lamp biomicroscopy including Rose Bengal staining (Example 2); format: in vivo
Description: This example further examines the safety of glyceraldehyde treatment in an animal model. The experiment described in Example 2 involved the study of six (6) pigmented Dutch Belted rabbits, two (2) in the control group and four (4) in glyceraldehyde treated experimental group. On Study Day 1, all rabbits received a thorough ophthalmic examination including slit lamp biomicroscopy and indirect ophthalmoscopy.
The slit lamp biomicroscopy was performed substantially as described in Example 1. However, Rose Bengal stain was used here applied using Rose Bengal Ophthalmic Strips (Barnes-Hind, Inc., Sunnyvale, Calif.). This procedure involved a sterile strip wetted in 0.9% sodium chloride applied to the […] and sciera of an examined rabbit. The rabbit was allowed to blink applying the stain and then the treated eye was examined. Slit lamp biomicroscopy including Rose Bengal staining was performed on Study Days 1 (baseline), 8, 9, 11, 15, 34, 45, and 63. The animals were scored and the results recorded using the criteria described in Example 1.
Following baseline examinations, the rabbits were anesthetized and received a corneal intrastromal injection of 500 IU of hyaluronidase in OD (right eye) only using the method described in Example 1.
The administration of the test agents in the form of topical eyedrops began on Study Day 8. The control animals were administered a Balanced Saline Solution (BSS) (IOLAB Corporation, Claremont, Calif.) four times a day in each eye. The experimental animals received a 3% glyceraldehyde solution. The glyceraldehyde solution was prepared under sterile conditions at Advanced Corneal Systems (Irvine, Calif.) by dissolving 18 grams of glyceraldehyde in 600 mL of 0.9% sodium chloride USP, sterile filtering, and aliquotting the 3% glyceraldehyde (w/v) solution into 10 ml droppers. The experimental rabbits received one drop of glyceraldehyde solution four times a day using the technique described in Example 1. The rabbits received topical drops for a total of 63 days.

[2] = test system: eyes of myopic human subjects; experiment: Mild myopia study, group II: 500 IU hyaluronidase, corrective lenses, 3% glyceraldehyde (Example 9); format: in vivo
Source text: Given the favorable results obtained in Example 8, an additional study was undertaken to test the safety and efficacy of the method of the present invention using a larger group of subjects. In this study, a group of subjects were selected and randomly separated into three test groups to test the safety and efficacy of using hyaluronidase and a glyceraldehyde solution for treating subjects with sub-optimal visual acuity. Groups one and two received an intrastromal injection of hyaluronidase (50 and 500 IU, respectively), while group three received a control injection of saline.
Following a two week incubation period after the injection, the three groups were fitted with corrective lenses to optimize the visual acuity of the subjects. The corrective lenses were left in place for a period of time sufficient to alter the shape of the subjects' eyes so as to achieve an optimal visual acuity. This period of time was generally 2 days in length. Once an acceptable visual acuity was achieved, the subjects in the three groups received a topical 3% glyceraldehyde solution in the form of ophthalmic drops four times per day while wearing the corrective lenses. The glyceraldehyde treatment was generally administered for one month. Lens wear occurred from 8 to 12 hours during the day.
At the end of the treatment period both the lens wear and the glyceraldehyde solution administration was terminated. The general health and visual acuity of the subjects was monitored from 3 to 5 months following treatment termination.
The subjects of group II were treated as those in group I in preparation for their participation in the study reported here. Before beginning the experimental protocol, test subjects were examined initially to establish a baseline from which the future results of the treatment were compared.
Following the establishment of a baseline reading, group II subjects were fitted with contact lenses and wore the corrective lenses at night for a period of two (2) to seven (7) days or until an acceptable visual acuity (approximately 20/20) was achieved. Group II test subjects received 500 IU of hyaluronidase by injection as compared to the 50 IU of group I. Two groups of subjects received 500 IU of hyaluronidase. The results obtained from the first group are shown in Table IIIA and the results from the second group are shown in Table IIIA and are identified in the table by the notation Gr. VI. There were no meaningful differences in the treatment protocols between these two groups. Subjects achieving an acceptable visual acuity received the topical 3% glyceraldehyde solution in the form of ophthalmic drops four times per day (08:00, 12:00, 16:00, and 20:00) for a period of 1 month in conjunction with daytime lens wear for stabilization. During this period, lens were occurred for approximately 8-12 hours per day and there was no nocturnal lens wear.
The subjects were examined periodically during the glyceraldehyde treatment to monitor changes in the health of the treated eyes.
At the end of the treatment period, the stabilizing lens were removed and the administration of the 3% glyceraldehyde solution was terminated. Following termination of the treatment, the subjects were examined immediately after treatment was terminated, once a week for the first four weeks after termination, and then monthly to measure changes in the visual acuity of the treated eyes. The health of the eye was also monitored. Sequelae characterized by the appearance or worsening of serious ocular symptoms or slit-lamp findings observed during these examinations were assessed. The proportions of subjects with such findings were analyzed.

Structure (SMILES): O=CC(O)CO (stereo not drawn) [glyceraldehyde]
- day by which aqueous cell/flare was absent ([1]; glyceraldehyde treated cohort had cell and flare at baseline): ≤ 14 days
- changes to the structure of the eyes as compared to controls ([1]; rabbits, 3% glyceraldehyde 1 drop four times a day, 63 days, 500 IU hyaluronidase in right eye only): no significant changes
- effect on resolution of baseline aqueous cell and flare ([1]; rabbits, 3% glyceraldehyde drops four times a day): did not appear to impair the resolution of the cell and flare
- UVA at follow-up after lens removal ([2]; Gr. VI subject 101, one month time point, baseline 20/200): 20/60
- UVA at follow-up after lens removal ([2]; Gr. VI subject 102, two month date, baseline 20/160): 20/20
- UVA at follow-up after lens removal ([2]; Gr. VI subject 103, two month date, baseline 20/160): 20/50
- UVA at follow-up after lens removal ([2]; Gr. VI subject 104, one month time point, baseline 20/200): 20/80
- UVA at follow-up after lens removal ([2]; Gr. VI subject 105, two month date, baseline 20/200): 20/80
- UVA at follow-up after lens removal ([2]; Gr. VI subject 106, two month date, baseline 20/160): 20/63
- UVA at follow-up after lens removal ([2]; Gr. VI subject 107, one month time point, baseline 20/60): 20/20
- overall effect on retention of orthokeratology benefits ([2]; combination of hyaluronidase (500 IU) and glyceraldehyde treatment): effective at retaining the benefits of orthokeratology
- UVA at follow-up after lens removal ([2]; subject 00S/031, three month point, baseline 20/200): 20/50
- UVA at follow-up after lens removal ([2]; subject 004, four month point, baseline 20/160): 20/50
- UVA at follow-up after lens removal ([2]; subject 013, three month point, baseline 20/100): 20/40
- UVA at follow-up after lens removal ([2]; subject 017, three month point, baseline 20/50): 20/25
- UVA at follow-up after lens removal ([2]; subject 018, three month point, baseline 20/80): 20/25
- UVA at follow-up after lens removal ([2]; subject 019, three month point, baseline 20/70): 20/15
- UVA at follow-up after lens removal ([2]; subject 023, two months, baseline 20/70): 20/20
- UVA at follow-up after lens removal ([2]; subject 026, two months, baseline 20/50): 20/25
- UVA at follow-up after lens removal ([2]; subject 030, two months, baseline 20/300): 20/100
- UVA at follow-up after lens removal ([2]; subject P10/008, three month point, baseline 20/400): 20/80
